Columns and labels:
[1] = system: MST-DA-1 (DNA, aptamer) ATAGGAGTCACGACGACCAGAAAAATAATTTAAATTTTCTACCCAATGCTTTTCGCATAATATGTGCGTCTACCTCTTGA; experiment: microscale thermophoresis; conditions: 150 mM NaCl, 2 mM MgCl2; 50 mM Tris, pH 7.4, room temperature
[2] = system: APT-mid-BHQ1 (DNA, aptamer, internal BHQ1-dT at 29) ATTTGACCATGTCGAGGGAGACGCGCAGTCGCTACCACCT; experiment: strand-displacement fluorescence (duplexed FRET); conditions: FAM-11nt-C strand displaced; 1 h after OA addition
[3] = system: FRET-OA-2 (DNA, aptamer) ATTTGACCATGTCGAGGGAGACGCGCAGTCGCTACCACCT; experiment: fluorescence (FAM/BHQ-1 FRET) titration; conditions: 150 mM NaCl, 2 mM MgCl2; 50 mM Tris, pH 7.4, 37 °C, 500 nM aptamer; exact value in Figure 1D
[4] = system: OA-2 (DNA, aptamer) ATTTGACCATGTCGAGGGAGACGCGCAGTCGCTACCACCT; experiment: AuNP aggregation colorimetry; conditions: NaCl added (100 mmol L^−1 stock); 1 μmol L^−1 aptamer, room temperature
[5] = system: MST-OA-2 (DNA, aptamer) ATTTGACCATGTCGAGGGAGACGCGCAGTCGCTACCACCT; experiment: microscale thermophoresis; conditions: 150 mM NaCl, 2 mM MgCl2; 50 mM Tris, pH 7.4, room temperature
[6] = system: FRET-OA-1 (DNA, aptamer) GGTCACCAACAACAGGGAGCGCTACGCGAAGGGTCAATGTGACGTCATGCGGATGTGTGG; experiment: fluorescence (FAM/BHQ-1 FRET) titration; conditions: 150 mM NaCl, 2 mM MgCl2; 50 mM Tris, pH 7.5, 37 °C, 500 nM aptamer; exact value in Figure 1C
[7] = system: MST-OA-1 (DNA, aptamer) GGTCACCAACAACAGGGAGCGCTACGCGAAGGGTCAATGTGACGTCATGCGGATGTGTGG; experiment: microscale thermophoresis; conditions: 150 mM NaCl, 2 mM MgCl2; 50 mM Tris, pH 7.5, room temperature

| Kd [1] | binding [2] | Kd [3] | binding [4] | Kd [5] | Kd [6] | Kd [7] | SMILES |
| --- | --- | --- | --- | --- | --- | --- | --- |
| 1180 ± 2030 nM |  |  |  |  |  |  | C/C(=C/C=C/[C@@H](C)C(=O)O)[C@H]1CN[C@H](C(=O)O)[C@H]1CC(=O)O |
|  | yes | < 800 nM | yes | 257.25 ± 90.25 nM | < 800 nM | 1260 ± 560 nM | C=C1[C@@H](O)[C@@H]2O[C@]3(CC[C@H](/C=C/[C@@H](C)[C@@H]4CC(C)=C[C@@]5(O[C@H](C[C@@](C)(O)C(=O)O)CC[C@H]5O)O4)O3)CC[C@H]2O[C@@H]1[C@@H](O)C[C@H](C)[C@H]1O[C@@]2(CCCCO2)CC[C@H]1C |

Reference: publication PMC11898563 (2025)
